Results published in the Bradley open melting point set (2014).
Values joined by “and” are separate entries in the source; they are usually repeats but may differ in a detail not shown here. Equal entries are not always repeated. Structures can show the parent of a compound that is named as a salt.

Row | Structure (SMILES) | melting point
1 | CC=1CCCC(C)(C)C=1/C=CC(C)=CC=CC(C)=CC(=O)O [Alitretinoin] | 190 °C
2 | NCC[C@H](O)C(=O)N[C@@H]1C[C@H](N)[C@@H](O[C@H]2O[C@H](CN)[C@@H](O)[C@H](O)[C@H]2O)[C@H](O)[C@H]1O[C@H]1O[C@H](CO)[C@@H](O)[C@H](N)[C@H]1O [Amikacin] | 204 °C
3 | NC1=NCC(c2ccccc2)O1 (stereo not given) [Aminorex] | 137 °C
4 | C[C@@H]1[C@H](O)[C@@H](C)C=CC=CC=CC=CC=CC=CC=C[C@H](O[C@@H]2O[C@H](C)[C@@H](O)[C@H](N)[C@@H]2O)C[C@@H]2O[C@](O)(C[C@@H](O)C[C@@H](O)[C@H](O)CC[C@@H](O)C[C@@H](O)CC(=O)O[C@H]1C)C[C@H](O)[C@H]2C(=O)O [Amphotericin B] | 170 °C
5 | COc1ccccc1 [Anisole] | -37 °C
6 | O=C1c2ccccc2Cc2ccccc21 [Anthracen-9(10H)-one] | 156 °C
7 | C=CCC1(CC(C)C)C(=O)NC(=O)NC1=O [BUTALBITAL] | 138 °C
8 | CCC1(CC)C(=O)NC(=O)NC1=O [Barbital] | 190 °C
9 | O=[N+]([O-])c1ccc(C=NO)cc1 [Benzaldehyde, 4-nitro-, oxime] | 130 °C
10 | N#Cc1cc(C#N)c(C#N)cc1C#N [Benzene-1,2,4,5-tetracarbonitrile] | 265 °C
11 | Nc1ccccc1N [Benzene-1,2-diamine] | 102 °C
12 | Nc1ccc(N)cc1 [Benzene-1,4-diamine] | 140 °C
13 | O=S(=O)(O)c1ccccc1 [Benzenesulfonic acid] | 43.5 °C
14 | c1ccc2c(c1)cc1ccc3cccc4ccc2c1c34 [Benzo[pqr]tetraphene] | 176 °C
15 | CCOC(=O)c1ccc(N)cc1 [Benzocaine, Ethyl 4-aminobenzoate] | 90 °C
16 | O=C(O)c1ccccc1 [Benzoic acid] | 122 °C
17 | O=C(c1ccccc1)C(O)c1ccccc1 (stereo not given) [Benzoin] | 137 °C
18 | O=C(Cl)c1ccccc1 [Benzoyl chloride] | -1 °C
19 | C[C@H]1C[C@H]2[C@@H]3CCC4=CC(=O)C=C[C@]4(C)[C@@]3(F)[C@@H](O)C[C@]2(C)[C@@]1(O)C(=O)CO [Betamethasone] | 232 °C
20 | Nc1ccccc1-c1ccccc1 [Biphenyl-2-amine] | 51.5 °C
21 | Nc1ccc(-c2ccc(N)cc2)cc1 [Biphenyl-4,4'-diamine] | 128 °C
22 | Oc1ccc(-c2ccccc2)cc1 [Biphenyl-4-ol] | 167 °C
23 | Clc1cc2c(cc1Cl)-c1cc(Cl)c(Cl)cc1-2 [Biphenylene, 2,3,6,7-tetrachloro-] | 239 °C
24 | CC(C)CCCCCCCOC(=O)c1ccccc1C(=O)OCCCCCCCC(C)C [Bis(8-methylnonyl) phthalate] | -50 °C

Row | Structure (SMILES) | melting point
25 | BrBr [Bromine] | -7.2 °C
26 | Brc1ccccc1 [Bromobenzene] | -31 °C
27 | CCC(C)C1(CC)C(=O)NC(=O)NC1=O (stereo not given) [Butabarbital] | 166 °C
28 | CCCCS [Butane-1-thiol] | -116 °C
29 | CCCCOC(=O)c1ccc(N)cc1 [Butyl 4-aminobenzoate] | 58 °C
30 | CCCCOC(=O)c1ccc(O)cc1 [Butyl 4-hydroxybenzoate] | 68.5 °C
31 | CCCCc1ccccc1 [Butylbenzene] | -88 °C
32 | CCCC=O [Butyraldehyde] | -96 °C
33 | CCCC(=O)O [Butyric acid] | -5 °C
34 | C=C1C(C[C@@H](O)C[C@@H]1O)=CC=C2/CCC[C@]3(C)[C@H](CC[C@@H]23)[C@H](C)CCCC(C)(C)O [Calcitriol] | 113 °C
35 | CC1(C)[C@H]2CC[C@]1(C)C(=O)C2 [Camphor] | 180 °C
36 | CC[C@@]1(O)C(=O)OCc2c1cc1n(c2=O)Cc2cc3ccccc3nc2-1 [Camptothecin] | 276 °C
37 | CCCCCCCC(=O)O [Caprylic acid] | 16.3 °C
38 | c1ccc2c(c1)[nH]c1ccccc12 [Carbazole] | 247 °C
39 | C[C@@](Cc1ccc(O)c(O)c1)(NN)C(=O)O [Carbidopa] | 204 °C
40 | [C-]#[O+] [Carbon monooxide] | -205 °C
41 | NNC(=O)NN [Carbonohydrazide] | 158 °C
42 | CC1=C(C(=O)O)N2C(=O)[C@@H](NC(=O)[C@H](N)C3=CCC=CC3)[C@H]2SC1 [Cefradine] | 140 °C
43 | CON=C(/c1ccco1)C(=O)N[C@@H]3C(=O)N2C(=C(COC(N)=O)CS[C@@H]23)C(=O)O [Cefuroxime] | 222 °C
44 | COc1ccc(C=CC(=O)c2ccccc2)cc1 [Chalcone, 4-methoxy-] | 76 °C
45 | C[Si](C)(C)Cl [Chloro(trimethyl)silane] | -58 °C
46 | Clc1ccccc1 [Chlorobenzene] | -45 °C
47 | O=C(O)c1cc(=O)[nH]c(=O)[nH]1 [Cholergol] | 345 °C
48 | CC(C)CCC[C@@H](C)[C@H]1CC[C@H]2[C@@H]3CC=C4C[C@@H](O)CC[C@]4(C)[C@H]3CC[C@]12C [Cholesterol] | 148 °C

Row | Structure (SMILES) | melting point
49 | Clc1cccc(Cl)c1NC1=NCCN1 [Clonidine] | 130 °C
50 | COC(=O)[C@@H]1C2CCC(C[C@@H]1OC(=O)c1ccccc1)N2C (stereo not given in full) [Cocaine] | 195 °C
51 | COc1ccc2c3c1O[C@H]1[C@@H](O)C=C[C@H]4[C@@H](C2)N(C)CC[C@@]341 [Codeine] | 155 °C
52 | CCC(C)CCCC(=O)N[C@@H](CCN)C(=O)N[C@H](C(=O)N[C@@H](CCN)C(=O)N[C@H]1CCNC(=O)[C@H]([C@@H](C)O)NC(=O)[C@H](CCN)NC(=O)[C@H](CCN)NC(=O)[C@H](CC(C)C)NC(=O)[C@@H](CC(C)C)NC(=O)[C@H](CCN)NC1=O)[C@@H](C)O (stereo not given in full) [Colistin] | 210 °C
53 | C[C@]12CCC(=O)C=C1CC[C@@H]1[C@@H]2C(=O)C[C@@]2(C)[C@H]1CC[C@]2(O)C(=O)CO [Cortisone] | 225 °C
54 | C1CCCCC1 [Cyclohexane] | 7 °C
55 | O=C1CCCCC1 [Cyclohexanone] | -32 °C and -31 °C
56 | NC1(C(=O)O)CCCC1 [Cycloleucine] | 330 °C
57 | C1CCCC1 [Cyclopentane] | -94 °C
58 | OC1CCCC1 [Cyclopentanol] | -19 °C
59 | C1=CCCC1 [Cyclopentene] | -135 °C
60 | NC1CONC1=O (stereo not given) [Cycloserine] | 147 °C
61 | N[C@H](Cc1ccccc1)C(=O)O [D-Phenylalanine] | 274 °C
62 | O=C[C@@H](O)[C@H](O)[C@H](O)CO [D-arabinose] | 156 °C
63 | N=C(N)NCCC[C@@H](N)C(=O)O [D-arginine] | 235 °C
64 | O=C[C@H](O)[C@@H](O)[C@@H](O)[C@H](O)CO [D-galactose] | 167 °C
65 | O=C[C@H](O)[C@@H](O)[C@H](O)[C@H](O)CO [D-glucose, anhydrous] | 151 °C
66 | O[C@@H]1CO[C@H]2[C@@H]1OC[C@@H]2O [D-isosorbide] | 60 °C
67 | O=C(O)C[C@@H](O)C(=O)O [D-malic acid] | 102 °C
68 | OC[C@H]1OC(O)[C@@H](O)[C@@H](O)[C@@H]1O (stereo partly drawn) [D-mannose] | 130 °C
69 | O=C[C@H](O)[C@H](O)[C@H](O)CO [D-ribose] | 84 °C
70 | O=C(CO)[C@@H](O)[C@@H](O)[C@H](O)CO [D-tagatose] | 135 °C
71 | O=C(O)[C@@H](O)[C@H](O)C(=O)O [D-tartaric acid] | 168 °C
72 | OC1OC[C@@H](O)[C@H](O)[C@H]1O (stereo partly drawn) [D-xylose] | 149 °C

Row | Structure (SMILES) | melting point
73 | Cc1c2oc3c(C)ccc(C(=O)NC4C(=O)NC(C(C)C)C(=O)N5CCCC5C(=O)N(C)CC(=O)N(C)C(C(C)C)C(=O)OC4C)c3nc-2c(C(=O)NC2C(=O)NC(C(C)C)C(=O)N3CCCC3C(=O)N(C)CC(=O)N(C)C(C(C)C)C(=O)OC2C)c(N)c1=O (stereo not given) [Dactinomycin] | 242 °C
74 | C=CCCCCCCCC [Dec-1-ene] | -66 °C
75 | CCCCCCCCCC(=O)O [Decanoic acid] | 31 °C
76 | C[C@]12CC[C@H]3[C@@H](CCC4=CC(=O)CC[C@@]43C)[C@@H]1CC[C@@H]2C(=O)CO [Deoxycorticosterone] | 142 °C
77 | CC(C)(C)OOC(C)(C)C [Di-tert-butyl peroxide] | -40 °C
78 | CCOC(=O)/C=C/C(=O)OCC [Diethyl (2E)-but-2-enedioate] | 1 °C
79 | CCOC(=O)C(=O)OCC [Diethyl oxalate] | -41 °C
80 | C[C@H]1O[C@@H](O[C@H]2[C@@H](O)C[C@H](O[C@H]3[C@@H](O)C[C@H](O[C@H]4CC[C@@]5(C)[C@H](CC[C@@H]6[C@@H]5C[C@@H](O)[C@]5(C)C(C7=CC(=O)OC7)CC[C@]65O)C4)O[C@@H]3C)O[C@@H]2C)C[C@H](O)[C@@H]1O (stereo not given in full) [Digoxin] | 249 °C
81 | COc1ccc2c3c1O[C@H]1[C@@H](O)CC[C@H]4[C@@H](C2)N(C)CC[C@@]341 [Dihydrocodeine] | 112 °C
82 | COP(=O)(OC)C(O)C(Cl)(Cl)Cl (stereo not given) [Dimethyl (2,2,2-trichloro-1-hydroxyethyl)phosphonate] | 83 °C
83 | COC [Dimethyl ether] | -138 °C
84 | COC(=O)CC(=O)OC [Dimethyl malonate] | -62 °C
85 | COC(=O)CCCCCCCCC(=O)OC [Dimethyl sebacate] | 26.5 °C
86 | CN(C)CC(=O)O [Dimethylglycine] | 186 °C
87 | Cc1ncc([N+](=O)[O-])n1C [Dimetridazole] | 140 °C
88 | OC(c1ccccc1)c1ccccc1 [Diphenylmethanol] | 66 °C
89 | [SiH3][SiH3] [Disilane] | -133 °C
90 | CN(C)C(=O)Nc1ccc(Cl)c(Cl)c1 [Diuron] | 159 °C
91 | CC(=O)O[C@@]12CO[C@@H]1C[C@H](O)[C@@]1(C)C(=O)[C@H](O)C3=C(C)[C@@H](OC(=O)[C@H](O)[C@@H](NC(=O)OC(C)(C)C)c4ccccc4)C[C@@](O)([C@@H](OC(=O)c4ccccc4)[C@H]21)C3(C)C [Docetaxel] | 232 °C
92 | O=C(O)CCCCCCCCCCC(=O)O [Dodecanedioic acid] | 129 °C
93 | CCCCCCCCCCCC[N+](C)(C)[O-] [Dodecyl(dimethyl)amine oxide] | 132 °C
94 | CCCCCCCCCCCCc1ccccc1 [Dodecylbenzene] | -7 °C
95 | COc1cc2nc(N3CCN(C(=O)C4COc5ccccc5O4)CC3)nc(N)c2cc1OC (stereo not given) [Doxazosin] | 290 °C
